SMILES strings stand for the structures.

Experiment in all cases: Enzyme Assay and Determination of the Inhibition Constants
Settings in all cases: pH 7.4; 22 °C

One test deals with Coagulation factor X (Homo sapiens, UniProt P00742). The method, then: (§1) Each enzyme was assayed with a set of different concentrations of each inhibitor. […] Ki(apparent) values were calculated from enzyme velocity curves using the software package BatchKi (BioKin Ltd, Madison, WI). These apparent inhibition constants were then converted to Ki values by assuming competitive inhibition and using the formula Ki = Ki(apparent)/(1 + S/Km).

In another test the target is Prothrombin (Homo sapiens, UniProt P00734). The method, then:
as §1

Test [1] deals with Tissue-type plasminogen activator (Homo sapiens, UniProt P00750). The method, then:
as §1

The target of another test is Tryptase beta-2 (Homo sapiens, UniProt P20231). The method, then:
as §1

Test [2] concerns the target Urokinase-type plasminogen activator (Homo sapiens, UniProt P00749). The method, then: as §1

Sequence of Coagulation factor X (P00742 41-179 limits assumed): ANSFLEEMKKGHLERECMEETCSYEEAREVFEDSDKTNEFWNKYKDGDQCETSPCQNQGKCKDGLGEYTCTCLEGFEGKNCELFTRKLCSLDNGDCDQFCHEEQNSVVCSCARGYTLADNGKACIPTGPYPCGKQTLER
Sequence of Coagulation factor X (P00742 235-488 limits assumed): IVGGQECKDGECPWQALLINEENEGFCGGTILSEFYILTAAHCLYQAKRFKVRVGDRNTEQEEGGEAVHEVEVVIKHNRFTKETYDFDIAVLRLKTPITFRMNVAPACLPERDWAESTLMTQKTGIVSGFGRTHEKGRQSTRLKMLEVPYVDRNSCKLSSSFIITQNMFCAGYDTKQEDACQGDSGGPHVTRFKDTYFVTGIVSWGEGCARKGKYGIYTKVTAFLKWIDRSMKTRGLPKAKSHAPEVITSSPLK
Sequence of Tryptase beta-2 (P20231 as listed by the source): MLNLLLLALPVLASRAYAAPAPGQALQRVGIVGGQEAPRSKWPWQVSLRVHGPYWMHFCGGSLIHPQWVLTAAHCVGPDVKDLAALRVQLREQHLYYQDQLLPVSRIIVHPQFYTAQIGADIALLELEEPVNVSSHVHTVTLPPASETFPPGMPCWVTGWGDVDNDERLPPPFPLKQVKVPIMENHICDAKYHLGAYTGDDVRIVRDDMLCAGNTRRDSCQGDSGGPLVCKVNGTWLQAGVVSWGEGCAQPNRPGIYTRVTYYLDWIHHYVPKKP
Sequence of Tissue-type plasminogen activator (P00750 whole entry): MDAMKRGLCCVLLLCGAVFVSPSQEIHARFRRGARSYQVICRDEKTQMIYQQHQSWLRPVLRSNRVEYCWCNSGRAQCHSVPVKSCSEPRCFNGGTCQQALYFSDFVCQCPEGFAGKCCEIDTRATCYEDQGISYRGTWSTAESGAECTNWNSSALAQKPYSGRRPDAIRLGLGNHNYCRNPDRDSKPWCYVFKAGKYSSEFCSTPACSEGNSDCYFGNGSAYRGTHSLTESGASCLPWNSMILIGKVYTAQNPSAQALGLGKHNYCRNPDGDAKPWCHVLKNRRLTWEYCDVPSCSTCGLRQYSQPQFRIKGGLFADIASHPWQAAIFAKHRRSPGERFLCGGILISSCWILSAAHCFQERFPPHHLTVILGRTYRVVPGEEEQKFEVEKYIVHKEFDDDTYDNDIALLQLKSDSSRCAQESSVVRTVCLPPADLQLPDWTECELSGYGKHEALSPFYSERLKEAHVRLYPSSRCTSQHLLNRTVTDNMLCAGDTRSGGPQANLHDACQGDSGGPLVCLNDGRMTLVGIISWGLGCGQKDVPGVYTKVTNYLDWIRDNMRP

Regarding `N=C(N)c1cc2cccnc2s1` [[amino(thieno[2,3-b]pyridin-2-yl)methylidene]azanium], the Ki turned out to be 360 µM at Coagulation factor X, 1600 µM on Prothrombin, 1800 µM in test [1] and 34 µM on Tryptase beta-2.

`N=C(N)c1cc2c(I)cccc2s1` [CA-01]: the Ki was determined as 30 µM at Coagulation factor X, 16.8 µM in test [1] and 1.5 µM on Tryptase beta-2.

Turning to `N=C(N)c1ccccc1` [Benzamidine], the Ki on Coagulation factor X worked out at 110 µM.

`N=C(N)c1cc2ccccc2s1` [Benzo[b]thiophene-2-carboxamidine]: the Ki at Coagulation factor X was 21 µM; at Prothrombin it was 58 µM; in test [1], 15 µM; at Tryptase beta-2 it was 9.9 µM; in test [2], 2.3 µM.

A word on the Ki: it is the dissociation constant of the complex between target and ligand, obtained from inhibition or displacement. A lower Ki goes with higher affinity.

Values taken from BindingDB's records for doi:10.1016/S1074-5521(00)00104-6 (Axys Pharmaceutical, 2000).
